Results: patent publication US20250222116A1, “PARP-1 DEGRADATION AGENT AND USE THEREOF” (XIZANG HAISCO PHARMACEUTICAL CO., LTD., priority 2021, published 2025)

What was measured:
[1] = tested on: breast tumor cells MDA-MB-436; assay: MDA-MB-436 cell activity test (CellTiter-Glo, 7 days); format: cell-based, human; conditions: Homo sapiens
Method in brief: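 MDA-MB-436 cells in Leibovitz's L-15 + 10% FBS, 37° C. without CO2, seeded 4000 cells/well overnight, then treated with compound dilutions for 7 days. Viability by CellTiter-Glo luminescence; inhibition relative to solvent control and cell-free blank, IC50 from concentration-response.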

[2] = tested on: Human breast cancer MDA-MB-436 cells; assay: Mouse MDA-MB-436 subcutaneous in vivo transplanted tumor model; conditions: for TGI: after 28 days of administration
Experimental: Human breast cancer MDA-MB-436 cells were placed in Leibovitz's L-15 medium (supplemented with 10 μg/mL insulin, 16 μg/mL glutathione, 10% fetal bovine serum and 1% penicillin-streptomycin solution) and cultured at 37° C. Conventional digestion treatment with trypsin was performed twice a week for passage. When the cell saturation was 80%-90%, and the number reached the requirement, the cells were harvested, counted, and inoculated. BALB/c nude mice (from Beijing Vital River Laboratory Animal Technology Co., Ltd.) were subcutaneously inoculated with 0.2 mL (10×10^6) of MDA-MB-436 cells (plus matrigel, with the volume ratio of 1:1) on the right back. When the average tumor volume reached about 180 mm^3, grouping and administration were performed (marked as Day 0). The solvent group was given 5% DMSO, 30% PEG400 and 65% of 20% sulfobutyl-β-cyclodextrin solution, and the administration group was given 1 or 10 mg/kg compound 10. The administration frequency was once a day, the administration cycle was 29 days, and the drug withdrawal observation period was set to 14 days. After grouping, the tumor diameter was measured twice a week with a vernier caliper. The formula for calculating the tumor volume was: V=0.5×a×b^2, where a and b represented the long and short diameters of the tumor, respectively. […] The tumor growth curve and the animal body weight change curve were as shown in FIG. 1 and FIG. 2, respectively.

[3] = target: PARP1 (Homo sapiens (Human), UniProt P09874); assay: PARP1 protein expression level in MDA-MB-231 cells; format: cell-based; conditions: 24 hours
PARP1, sequence (P09874 whole entry): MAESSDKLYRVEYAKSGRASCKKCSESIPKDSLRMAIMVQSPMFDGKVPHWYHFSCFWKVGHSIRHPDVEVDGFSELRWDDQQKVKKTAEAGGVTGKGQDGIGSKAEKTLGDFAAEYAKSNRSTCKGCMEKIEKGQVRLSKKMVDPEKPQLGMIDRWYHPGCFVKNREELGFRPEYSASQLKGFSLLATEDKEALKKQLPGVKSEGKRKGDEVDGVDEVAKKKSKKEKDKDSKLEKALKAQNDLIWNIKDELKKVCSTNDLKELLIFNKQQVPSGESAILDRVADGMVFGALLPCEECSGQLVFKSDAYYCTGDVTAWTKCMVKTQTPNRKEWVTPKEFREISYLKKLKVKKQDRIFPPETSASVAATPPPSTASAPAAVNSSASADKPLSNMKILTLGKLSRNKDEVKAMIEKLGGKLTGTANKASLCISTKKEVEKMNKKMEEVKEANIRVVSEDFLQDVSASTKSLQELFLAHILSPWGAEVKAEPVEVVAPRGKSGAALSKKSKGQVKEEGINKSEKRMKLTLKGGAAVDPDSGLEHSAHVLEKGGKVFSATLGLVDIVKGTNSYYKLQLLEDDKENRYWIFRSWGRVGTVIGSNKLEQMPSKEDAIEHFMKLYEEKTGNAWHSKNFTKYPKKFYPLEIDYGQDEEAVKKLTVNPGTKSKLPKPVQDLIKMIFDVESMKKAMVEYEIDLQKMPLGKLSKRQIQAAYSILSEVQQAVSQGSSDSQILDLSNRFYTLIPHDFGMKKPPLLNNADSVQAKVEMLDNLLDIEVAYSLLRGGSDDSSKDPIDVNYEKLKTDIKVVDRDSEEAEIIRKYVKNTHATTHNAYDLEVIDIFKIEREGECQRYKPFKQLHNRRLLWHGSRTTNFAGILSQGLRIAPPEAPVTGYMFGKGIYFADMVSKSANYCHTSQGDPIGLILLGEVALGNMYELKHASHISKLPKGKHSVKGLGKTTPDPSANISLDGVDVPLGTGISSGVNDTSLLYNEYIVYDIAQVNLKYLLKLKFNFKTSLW
Experimental: The cells were collected into a 1.5 mL centrifuge tube, 25 μL of RIPA lysis buffer (containing 1× protease inhibitor cocktail) was added, and the cells were lysed on ice for 15 minutes and centrifuged at 12000 rpm/min at 4° C. for 10 minutes. The supernatant was collected and the protein content was determined using the BCA method. […] DC50 values were calculated using a four-parameter non-linear fitting model in Graphpad 8.3.0 software.

[4] = target: T1, PARP2 (Homo sapiens (Human), UniProt Q9UGN5); assay: PARP2 enzyme activity inhibition (chemiluminescence kit); format: biochemical
T1 sequence (Q9UGN5 whole entry): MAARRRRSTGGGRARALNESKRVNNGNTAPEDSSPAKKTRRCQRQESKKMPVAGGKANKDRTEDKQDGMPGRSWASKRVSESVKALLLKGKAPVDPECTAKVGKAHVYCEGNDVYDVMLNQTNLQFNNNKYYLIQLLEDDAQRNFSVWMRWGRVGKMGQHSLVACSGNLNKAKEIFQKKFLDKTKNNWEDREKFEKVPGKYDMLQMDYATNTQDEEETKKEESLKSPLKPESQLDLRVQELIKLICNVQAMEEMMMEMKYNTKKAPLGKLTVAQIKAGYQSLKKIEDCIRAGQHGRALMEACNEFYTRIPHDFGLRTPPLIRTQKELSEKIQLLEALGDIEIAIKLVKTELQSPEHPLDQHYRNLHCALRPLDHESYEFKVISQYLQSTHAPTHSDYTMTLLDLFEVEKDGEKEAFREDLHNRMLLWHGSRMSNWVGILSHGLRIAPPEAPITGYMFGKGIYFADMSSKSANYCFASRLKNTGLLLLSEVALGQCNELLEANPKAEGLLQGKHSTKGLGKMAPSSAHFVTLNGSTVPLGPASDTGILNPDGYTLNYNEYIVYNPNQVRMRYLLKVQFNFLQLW
Experimental: PARP1, PARP2 and PARP7 chemical […] detection kits were all purchased from BPS Bioscience. The histone solution in the kit was diluted 5× with 1×PBS, and 25 μL of the diluted histone solution was added to a microwell plate and incubated overnight at 4° C. After the incubation was completed, the plate was washed three times with PBST (0.05% Tween-20). 25 μL of a blocking solution was added to the microwell plate and incubated at 25° C. for 90 minutes. After the incubation was completed, the plate was washed three times with PBST. 2.5 μL of compounds at different concentrations diluted in test buffer and 5 μL of 2.5× substrate mixed solution were added to the microwell plate. PARP1, PARP2 and PARP7 enzymes were diluted to 0.33, 0.23 and 5.00 ng/μL, respectively, 5 μL of the diluent was added to the microwell plate, and the reaction system was incubated at 25° C. for 60 minutes. After the incubation was completed, the plate was washed three times with PBST. […] ELISA ECL substrate A and substrate B were mixed at a ratio of 1:1 (v/v), 25 μL of the mixture was added to the microwell plate, and the chemiluminescence value was read using a BMG microplate reader.
Curve fitting was performed by four parameters (log(inhibitor) vs. response−Variable slope) using GraphPad Prism software, and the IC50 value was calculated.

[5] = target: T1, PARP2; assay: PARP2 protein expression level in MDA-MB-231 cells; format: cell-based
Experimental: MDA-MB-231 cells were placed in a complete DMEM medium (supplemented with 10% FBS and 1% penicillin-streptomycin solution) and cultured at 37° C. and 5% CO2. The cells in the logarithmic growth phase were collected, the cell density was adjusted to 5×10^5 cells/well with the culture medium, and the cells were added to a 6-well cell culture plate at a volume of 1 mL/well, and cultured overnight in a 37° C., 5% CO2 incubator. On day 2, the compound to be tested was prepared to 2-fold the final concentration, 1 mL of the compounds at different concentrations were added to administration wells and a medium containing 0.2% DMSO was added to control wells, and the plate was incubated for 24 hours at 37° C. and 5% CO2. […] The supernatant was collected and the protein content was determined using the BCA method. The protein sample to be tested was diluted to 2 mg/mL, PARP2 was detected using a fully automated protein expression quantitative analyzer (ProteinSimple), and the internal reference protein was 3-actin (both antibodies were from CST). The software (Compass for SW) of the fully automated protein expression quantitative analyzer was used to process the raw data and calculate the peak area and the PARP2 expression rate relative to the control group. DC50 values were calculated using a four-parameter non-linear fitting model in Graphpad 8.3.0 software.

CCc1cc2ncc(CN3CCN(c4ccc(C(=O)NC5CCN(c6ccc7c(c6)C(=O)N(C6CCC(=O)NC6=O)C7=O)CC5)nc4)CC3)cc2[nH]c1=O (stereo not shown) [Compound 10, N-(1-(2-(2,6-dioxopiperidin-3-yl)-1,3-dioxoisoindolin-5-yl)piperidin-4-yl)-5-(4-((7-ethyl-6-oxo-5,6-dihydro-1,5-naphthyridin-3-yl)methyl)piperazin-1-yl)picolinamide] was tested, and the IC50 ([1]; MDA-MB-436, 168 h, MDA-MB-436 cells, 7 days incubation, read-out: IC50 (nM), MDA-MB-436 cell inhibitory activity) was 36 nM, the inhibition at 10 µM ([1]; MDA-MB-436, MDA-MB-436 cells, 10 μM, read-out: Max inh. % 10 μM) was 99.8% and the “tumor growth after drug withdrawal” value ([2]; 1 mg/kg group, 14 days withdrawal observation) was “continued to grow”. For the same compound, the TGI ([2]; 1 mg/kg once a day) was 47.14%, the “tumor volume after drug withdrawal” value ([2]; 10 mg/kg group, 14 days withdrawal observation) was “consistently smaller than the tumor volume at the time of grouping” and the TGI ([2]; 10 mg/kg once a day) was 111%. For the same compound, the “body weight of the animals” value ([2]; 1 or 10 mg/kg once a day) was “no significant decrease in the body weight”, the “efficacy in inhibiting tumor growth” value ([2]; mouse MDA-MB-436 model) was “good efficacy in inhibiting tumor growth and inducing tumor regression” and the tolerability ([2]; mouse MDA-MB-436 model) was “well tolerated”. The DC50 [3] was 0.12 nM, the IC50 [4] was 41 nM and the “PARP1 degradation selectivity over PARP2” value [5] was “good PARP1 degradation selectivity”. For the same compound, the DC50 ([5]; 24 hours) was greater than 5 nM.
